Laboratory results: patent US9890166B2, “Imidazopyrrolidine derivatives and their use in the treatment of disease” (NOVARTIS AG, priority 2013, dated 2018)

How the values were obtained:
[1] = biological target: BRD4 (His-Brd4(44-477)) (Homo sapiens (Human), UniProt O60885); assay: TR-FRET in-vitro binding assay for BRD4; conditions: single determination or n ≧ 2 independent determinations, read-out: Biochemical IC50 BRD4
In short: (§1)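 In this TR-FRET format, each compound was tested as an 8-point dilution series, single point per concentration, dispensed from 90% DMSO solution. Incubation lasted 35 minutes at 30° C.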

[2] = biological target: BRD2 (His-Brd2(60-472)) (Homo sapiens (Human), UniProt P25440); assay: TR-FRET in-vitro binding assay for BRD2; conditions: single determination or n ≧ 2 independent determinations, read-out: Biochemical IC50 BRD2
In short: as §1

[3] = biological target: BRD3 (His-Brd3(20-477)) (Homo sapiens (Human), UniProt Q15059); assay: TR-FRET in-vitro binding assay for BRD3; conditions: single determination or n ≧ 2 independent determinations, read-out: Biochemical IC50 BRD3
In short: as §1

[4] = biological target: CREBBP bromodomain (His-CREBBP(1081-1197)) (Homo sapiens (Human), UniProt Q92793); assay: AlphaScreen in-vitro binding assay for CREBBP; conditions: single determination or n ≧ 2 independent determinations, read-out: Biochemical IC50 CREBBP
In short: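 Detection used nickel-chelate acceptor plus streptavidin donor AlphaScreen beads, 1 h room temperature. Percent inhibition fitted by non-linear regression to IC50.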

[5] = tested on: THP-1 cells; assay: Cell growth inhibition assay (CellTiter-Glo), THP-1; conditions: for GI50: Homo sapiens, THP-1, read-out: THP-1 GI50; for THP-1 TGI: THP-1 cells, total growth inhibition, CellTiter-Glo;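 as to all read-outs here: viability read as cellular ATP luminescence after 4 days, 3-fold dilution series from 10 µM, DMSO vehicle-treated cells taken as 100%, cell-free medium wells as −100%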
[6] = tested on: K-562 cells; assay: Cell growth inhibition assay (CellTiter-Glo), K-562; conditions: for GI50: Homo sapiens, K562, read-out: K-562 GI50; for K-562 TGI: K-562 cells, total growth inhibition, CellTiter-Glo;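 as to all read-outs here: cellular ATP measured by luminescence after 4 days of exposure, 3-fold dilution series from 10 µM, DMSO vehicle-treated cells define 100%, cell-free medium wells −100%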
[7] = tested on: MV-4-11 cells; assay: Cell growth inhibition assay (CellTiter-Glo), MV-4-11; conditions: for GI50: Homo sapiens, MV4-11, read-out: MV-4-11 GI50; for MV-4-11 TGI: MV-4-11 cells, total growth inhibition, CellTiter-Glo;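 as to all read-outs here: cellular ATP luminescence after 4 days, 3-fold dilution series from 10 µM top dose, vehicle (0.1% DMSO) set to 100%, cell-free medium set to −100%, day 0 corrected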

Chain of CREBBP bromodomain (His-CREBBP(1081-1197)) (Q92793 1081-1197): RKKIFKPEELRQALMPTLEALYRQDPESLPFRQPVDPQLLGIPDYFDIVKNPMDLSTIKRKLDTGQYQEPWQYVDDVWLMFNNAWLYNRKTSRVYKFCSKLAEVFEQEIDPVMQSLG
Chain of BRD2 (His-Brd2(60-472)) (P25440 60-472): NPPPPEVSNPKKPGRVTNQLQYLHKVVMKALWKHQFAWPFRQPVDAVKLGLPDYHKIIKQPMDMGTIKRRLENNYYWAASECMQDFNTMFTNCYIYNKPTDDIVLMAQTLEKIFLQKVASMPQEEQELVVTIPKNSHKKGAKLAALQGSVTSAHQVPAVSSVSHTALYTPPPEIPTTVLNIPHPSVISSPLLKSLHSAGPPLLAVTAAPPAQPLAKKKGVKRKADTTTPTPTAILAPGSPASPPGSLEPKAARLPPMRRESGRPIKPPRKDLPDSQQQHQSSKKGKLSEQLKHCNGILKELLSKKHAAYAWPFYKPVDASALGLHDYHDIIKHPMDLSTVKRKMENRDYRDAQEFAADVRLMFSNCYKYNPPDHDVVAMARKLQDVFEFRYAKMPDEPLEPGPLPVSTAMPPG
Chain of BRD3 (His-Brd3(20-477)) (Q15059 20-477): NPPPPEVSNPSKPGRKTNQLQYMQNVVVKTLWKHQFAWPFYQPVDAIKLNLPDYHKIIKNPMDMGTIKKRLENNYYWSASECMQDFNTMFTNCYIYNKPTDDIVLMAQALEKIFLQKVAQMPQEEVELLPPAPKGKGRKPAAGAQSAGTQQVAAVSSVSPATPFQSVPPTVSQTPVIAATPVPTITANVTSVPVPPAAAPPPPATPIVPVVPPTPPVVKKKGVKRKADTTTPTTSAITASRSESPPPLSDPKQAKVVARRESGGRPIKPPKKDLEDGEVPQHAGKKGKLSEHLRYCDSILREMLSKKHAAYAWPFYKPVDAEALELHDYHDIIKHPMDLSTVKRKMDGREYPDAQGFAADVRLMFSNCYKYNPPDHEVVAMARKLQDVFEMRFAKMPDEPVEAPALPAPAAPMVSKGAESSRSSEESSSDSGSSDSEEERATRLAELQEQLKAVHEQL

| Structure (SMILES) | IC50 [1] | IC50 [2] | IC50 [3] | IC50 [4] | GI50 [5] | THP-1 TGI [5] | GI50 [6] | K-562 TGI [6] | GI50 [7] | MV-4-11 TGI [7] |
| --- | --- | --- | --- | --- | --- | --- | --- | --- | --- | --- |
| Cc1cc(N2C(=O)c3nc(C4=CCOCC4)n(C(C)C)c3C2c2ccc(Cl)cc2)nn2c(C)nnc12 (stereo not shown) [Example 100, 6-(4-chlorophenyl)-2-(3,6-dihydro-2H-pyran-4-yl)-5-(3,8-dimethyl-[1,2,4]triazolo[4,3-b]pyridazin-6-yl)-1-isopropyl-5,6-dihydropyrrolo[3,4-d]imidazol-4(1H)-one] | 26.5 nM | 63 nM | 25 nM | > 37000 nM | 7.22 nM | 26.7 nM | 42.9 nM | >10000 nM | 4.96 nM | 13.8 nM |
| Cc1cc(N2C(=O)c3nc(C4=CCOC4)n(C(C)C)c3[C@H]2c2ccc(Cl)cc2)cn2c(C)nnc12 [Example 48, (R)-6-(4-chlorophenyl)-2-(2,5-dihydrofuran-3-yl)-5-(3,8-dimethyl-[1,2,4]triazolo[4,3-a]pyridin-6-yl)-1-isopropyl-5,6-dihydropyrrolo[3,4-d]imidazol-4(1H)-one] | 27 nM | 41 nM | 33 nM | 3050 nM | 56.5 nM | 109 nM | 351 nM | >10000 nM | 10.5 nM | 24.5 nM |
| COc1ncc(-c2nc3c([nH]2)[C@@H](c2ccc(Cl)cc2)N(c2cc(OC)c4nnc(C)n4c2)C3=O)c(OC)n1 [Example 128, (R)-6-(4-chlorophenyl)-2-(2,4-dimethoxypyrimidin-5-yl)-5-(8-methoxy-3-methyl-[1,2,4]triazolo[4,3-a]pyridin-6-yl)-5,6-dihydropyrrolo[3,4-d]imidazol-4(1H)-one] | 84.5 nM | 220 nM | 136 nM | 16400 nM | 371 nM | 947 nM | 1230 nM | >10000 nM | 188 nM | 350.5 nM |
| COc1ncccc1-c1nc2c(n1C(C)C)C(c1ccc(Cl)cc1)N(c1cc(C)c3nnc(C(F)F)n3c1)C2=O (stereo not shown) [Example 132, 6-(4-chlorophenyl)-5-(3-(difluoromethyl)-8-methyl-[1,2,4]triazolo[4,3-a]pyridin-6-yl)-1-isopropyl-2-(2-methoxypyridin-3-yl)-5,6-dihydropyrrolo[3,4-d]imidazol-4(1H)-one] | < 11 nM | 19 nM | 12 nM | 27500 nM | 12.6 nM | 33.15 nM | 51.8 nM | >10000 nM | 9.44 nM | 18.9 nM |
| Cc1cc(N2C(=O)c3nc(C4CCN(C)CC4)n(C(C)C)c3C2c2ccc(Cl)cc2)cn2c(C)nnc12 (stereo not shown) [Example 98, 6-(4-chlorophenyl)-5-(3,8-dimethyl-[1,2,4]triazolo[4,3-a]pyridin-6-yl)-1-isopropyl-2-(1-methylpiperidin-4-yl)-5,6-dihydropyrrolo[3,4-d]imidazol-4(1H)-one] | 15 nM | 28 nM | 23 nM | 2900 nM | 472 nM | 2140 nM | 3630 nM | >10000 nM | 126 nM | 282 nM |
| CCOC(=O)N1CC=C(c2nc3c(n2C(C)C)C(c2ccc(Cl)cc2)N(c2cc(C)c4nnc(C)n4c2)C3=O)CC1 (stereo not shown) [Example 70, ethyl 4-(6-(4-chlorophenyl)-5-(3,8-dimethyl-[1,2,4]triazolo[4,3-a]pyridin-6-yl)-1-isopropyl-4-oxo-1,4,5,6-tetrahydropyrrolo[3,4-d]imidazol-2-yl)-5,6-dihydropyridine-1(2H)-carboxylate] | 17.5 nM | 32 nM | 17 nM | 6650 nM | 59.9 nM | 188 nM | 353 nM | >10000 nM | 29.6 nM | 41.3 nM |
| Cc1cc(N2C(=O)c3nc(C4=CCOC4)n(C(C)C)c3C2c2ccc(Cl)cc2)cn2c(CF)nnc12 (stereo not shown) [Example 92, 6-(4-chlorophenyl)-2-(2,5-dihydrofuran-3-yl)-5-(3-(fluoromethyl)-8-methyl-[1,2,4]triazolo[4,3-a]pyridin-6-yl)-1-isopropyl-5,6-dihydropyrrolo[3,4-d]imidazol-4(1H)-one] | < 11 nM | 27 nM | 27 nM | 5800 nM | 23.9 nM | 78.4 nM | 110 nM | >10000 nM | 15.3 nM | 33.65 nM |
| Cc1cc(N2C(=O)c3nc(C4CCOCC4)n(C(C)C)c3[C@H]2c2ccc(Cl)cc2)cn2c(C)nnc12 [Example 87, (R)-6-(4-chlorophenyl)-5-(3,8-dimethyl-[1,2,4]triazolo[4,3-a]pyridin-6-yl)-1-isopropyl-2-(tetrahydro-2H-pyran-4-yl)-5,6-dihydropyrrolo[3,4-d]imidazol-4(1H)-one] | 14 nM | 25 nM | 14 nM | 1800 nM | 27.6 nM | 79.2 nM | 166 nM | >10000 nM | 8.54 nM | 14.45 nM |
| Cc1cc(N2C(=O)c3nc(C4CC4)n(C(C)C)c3[C@H]2c2ccc(Cl)cc2)cn2c(C)nnc12 [Example 107, (R)-6-(4-chlorophenyl)-2-cyclopropyl-5-(3,8-dimethyl-[1,2,4]triazolo[4,3-a]pyridin-6-yl)-1-isopropyl-5,6-dihydropyrrolo[3,4-d]imidazol-4(1H)-one] | 23 nM | 28 nM | 23 nM | 1450 nM | 11.2 nM | 23.75 nM | 41.8 nM | >10000 nM | 4.84 nM | 9.71 nM |
| COc1ncccc1-c1nc2c(n1C(C)C)[C@@H](c1ccc(Cl)cc1)N(c1cc(C)c3nnc(C(F)F)n3n1)C2=O [Example 168, (R)-6-(4-chlorophenyl)-5-(3-(difluoromethyl)-8-methyl-[1,2,4]triazolo[4,3-b]pyridazin-6-yl)-1-isopropyl-2-(2-methoxypyridin-3-yl)-5,6-dihydropyrrolo[3,4-d]imidazol-4(1H)-one] | < 11 nM | 17 nM | < 11 nM | > 37000 nM | 5.65 nM | 18.9 nM | 30.8 nM | >10000 nM | 2.99 nM | 7.7 nM |
| Cc1cc(N2C(=O)c3nc(C4=CCOCC4)[nH]c3C2c2ccc(Cl)cc2)cn(C)c1=O (stereo not shown) [Example 134, 6-(4-chlorophenyl)-2-(3,6-dihydro-2H-pyran-4-yl)-5-(1,5-dimethyl-6-oxo-1,6-dihydropyridin-3-yl)-5,6-dihydropyrrolo[3,4-d]imidazol-4(1H)-one] | 38 nM | 80 nM | 35 nM | 1680 nM | 120 nM | 399 nM | 610 nM | >10000 nM | 72.4 nM | 141 nM |
| Cc1cc(N2C(=O)c3nc(C4=CCNCC4)n(C(C)C)c3C2c2ccc(Cl)cc2)cn2c(C)nnc12 (stereo not shown) [Example 49, 6-(4-Chlorophenyl)-5-(3,8-dimethyl-[1,2,4]triazolo[4,3-a]pyridin-6-yl)-1-isopropyl-2-(1,2,3,6-tetrahydropyridin-4-yl)-5,6-dihydropyrrolo[3,4-d]imidazol-4(1H)-one] | 35 nM | 56 nM | 42 nM | 2200 nM | 989 nM | 1470 nM | 2040 nM | >10000 nM | 191 nM | 320 nM |
| Cc1cc(N2C(=O)c3nc(C4CCNCC4)n(C(C)C)c3C2c2ccc(Cl)cc2)cn2c(C)nnc12 (stereo not shown) [Example 75, 6-(4-chlorophenyl)-5-(3,8-dimethyl-[1,2,4]triazolo[4,3-a]pyridin-6-yl)-1-isopropyl-2-(Piperidin-4-yl)-5,6-dihydropyrrolo[3,4-d]imidazol-4(1H)-one] | 17 nM | 27 nM | 24 nM | 4900 nM | 1600 nM | 8630 nM | 8650 nM | >10000 nM | 780 nM | 1125 nM |
